The values that follow come from patent US20250231185A1, “Coronavirus T Cell Epitopes, Megapools and Uses Thereof” (La Jolla Institute for Immunology, priority 2021, published 2025).

Assay [1] deals with CD4+ T cells. The following applies: cited from earlier work; for Allele(s): HLA class II allele(s) identified as MHC restriction elements of the CD4 epitope; for Restriction: T cell subset (CD4 or CD8) recognizing the SARS-CoV-2 epitope; for Dominant: SARS-CoV-2-derived CD4 epitopes, Yes = recognized by 3 or more donors/different studies.
In assay [2] the test system is CD8+ T cells. The conditions noted are these: cited from earlier work; for Restriction: SARS-CoV-2 Ag S, T cell type recognizing the epitope.
Assay [3] concerns CD8+ T cells. Briefly: Meta-analysis of published SARS-CoV-2 CD8 T cell epitope data curated in the IEDB (25 studies). Format: cell-based, human. The conditions noted are these: for Dominant: SARS-CoV-2 Ag S, CD8 epitopes, dominant = recognized by 3 or more donors/different studies.

“Also recorded” adds a separate entry of the source.

For the substance 1 (SEETGTLIVNSVLLF) [compound 1], in assay [1], the “Allele(s)” value is listed as “DQB1*03:01” and the Restriction entry was “CD4”.

For 2 (FLLVTLAILTALRLC) [compound 2], in assay [1], the Restriction result is “CD4”.

For 3 (LAILTALRLCAYCCN) [compound 3], in assay [1], the “Allele(s)” value is reported as “DRB1*01:01, DRB1*11:01” and the Restriction entry was “CD4”.

Turning to 4 (FYVYSRVKNLNSSRV) [compound 4], in assay [1], the Dominant entry is recorded as “Yes (more dominant epitopes are defined by being recognized by 3 or more donors/different studies)” and the Restriction result was “CD4”.

With 5 (EELKKLLEQWNLVIG) [compound 5], in assay [1], the “Allele(s)” value is “DQB1*05:01, DQB1*05:02” and the Restriction result was “CD4”.

6 (LLEQWNLVIGFLFLT) [compound 6]: in assay [1], the “Allele(s)” value is “DQB1*02:01, DQB1*05:03” and the Restriction result was “CD4”.

Take 7 (NLVIGFLFLTWICLL) [compound 7]: in assay [1], the “Allele(s)” value was “DQB1*05:01, DRB1*01:02” and the Restriction result is listed as “CD4”.

For the substance 8 (FLFLTWICLLQFAYA) [compound 8], in assay [1], the “Allele(s)” value is given as “DQB1*05:01, DQB1*05:03,; also recorded: DRB1*01:02” and the Restriction entry is “CD4”.

Turning to 9 (WICLLQFAYANRNRF) [compound 9], in assay [1], the “Allele(s)” value is recorded as “DQB1*05:03, DRB1*03:01,; also recorded: DRB1*14:01” and the Restriction result is listed as “CD4”.

For the substance 10 (QFAYANRNRFLYIIK) [compound 10], in assay [1], the “Allele(s)” value is “DRB1*14:01”, the Dominant result was “Yes (more dominant epitopes are defined by being recognized by 3 or more donors/different studies)” and the Restriction result is “CD4”.

Turning to 11 (NRNRFLYIIKLIFLW) [compound 11], in assay [1], the “Allele(s)” value is “DQB1*02:01, DQB1*05:03,; also recorded: DRB1*03:01, DRB1*12:01” and the Restriction result is on record as “CD4”.

12 (LYIIKLIFLWLLWPV) [compound 12]: in assay [1], the “Allele(s)” value is “DQB1*02:01, DRB1*12:01” and the Restriction result is “CD4”.

Turning to 13 (LIFLWLLWPVTLACF) [compound 13], in assay [1], the “Allele(s)” value is “DQB1*05:01, DQB1*05:03,; also recorded: DRB1*01:02” and the Restriction result is on record as “CD4”.

14 (LLWPVTLACFVLAAV) [compound 14]: in assay [1], the “Allele(s)” value is listed as “DQB1*05:01, DQB1*05:03,; also recorded: DQB1*06:03” and the Restriction result was “CD4”.

As for 15 (VLAAVYRINWITGGI) [compound 15], in assay [1], the “Allele(s)” value was “DQB1*05:01, DQB1*05:03,; also recorded: DRB1*12:02, DRB1*14:01”; the Dominant result is “Yes (more dominant epitopes are defined by being recognized by 3 or more donors/different studies)”; the Restriction entry is “CD4”.

For the substance 16 (YRINWITGGIAIAMA) [compound 16], in assay [1], the “Allele(s)” value is recorded as “DQB1*02:02, DQB1*03:01,; also recorded: DQB1*05:01, DQB1*05:02,; also recorded: DQB1*05:03, DQB1*06:02,; also recorded: DQB1*06:03, DRB1*07:01,; also recorded: DRB1*10:01, DRB1*12:01,; also recorded: DRB1*13:01, DRB1*14:01,; also recorded: DRB1*15:01, DRB1*16:01”; the Dominant result is “Yes (more dominant epitopes are defined by being recognized by 3 or more donors/different studies)”; the Restriction result is recorded as “CD4”.

On to 17 (ITGGIAIAMACLVGL) [compound 17], for which, in assay [1], the “Allele(s)” value was “DQB1*03:01” and the Restriction result was “CD4”.

As for 18 (AIAMACLVGLMWLSY) [compound 18], in assay [1], the Restriction result is recorded as “CD4”.

19 (CLVGLMWLSYFIASF) [compound 19]: in assay [1], the “Allele(s)” value is “DQB1*05:01, DQB1*05:03,; also recorded: DRB1*12:01, DRB1*12:02”; the Dominant result was “Yes (more dominant epitopes are defined by being recognized by 3 or more donors/different studies)”; the Restriction entry is “CD4”.

For the substance 20 (MWLSYFIASFRLFAR) [compound 20], in assay [1], the “Allele(s)” value is listed as “DQB1*02:01, DQB1*05:01,; also recorded: DQB1*05:02, DQB1*05:03,; also recorded: DRB1*03:01, DRB1*14:01,; also recorded: DRB1*14:06, DRB1*16:01,; also recorded: DRB1*16:02”; the Dominant entry is recorded as “Yes (more dominant epitopes are defined by being recognized by 3 or more donors/different studies)”; the Restriction result is listed as “CD4”.

On to 21 (FIASFRLFARTRSMW) [compound 21], for which, in assay [1], the “Allele(s)” value is on record as “DQB1*05:03, DRB1*03:01,; also recorded: DRB1*14:01” and the Restriction entry is recorded as “CD4”.

As for 22 (RLFARTRSMWSFNPE) [compound 22], in assay [1], the “Allele(s)” value was “DQB1*05:03, DRB1*14:01” and the Restriction entry is recorded as “CD4”.

In the case of 23 (TRSMWSFNPETNILL) [compound 23], in assay [1], the “Allele(s)” value is “DQB1*05:03, DRB1*01:02” and the Restriction result is “CD4”.

For the substance 24 (SFNPETNILLNVPLH) [compound 24], in assay [1], the “Allele(s)” value is reported as “DRB1*01:02” and the Restriction entry is “CD4”.

For the substance 25 (TNILLNVPLHGTILT) [compound 25], in assay [1], the “Allele(s)” value was “DRB1*10:01, DRB1*12:02,; also recorded: DRB1*14:01, DRB1*14:06,; also recorded: DRB1*15:01, DRB1*16:02”; the Dominant entry is listed as “Yes (more dominant epitopes are defined by being recognized by 3 or more donors/different studies)”; the Restriction result is recorded as “CD4”.

As to 26 (NVPLHGTILTRPLLE) [compound 26], the Restriction entry in assay [1] is “CD4”.

Turning to 27 (GTILTRPLLESELVI) [compound 27], in assay [1], the “Allele(s)” value is reported as “DRB1*13:01” and the Restriction result is recorded as “CD4”.

As for 28 (RPLLESELVIGAVIL) [compound 28], in assay [1], the “Allele(s)” value was “DQB1*02:02” and the Restriction result is reported as “CD4”.

Regarding 29 (SELVIGAVILRGHLR) [compound 29], in assay [1], the “Allele(s)” value is “DQB1*06:02, DQB1*06:03,; also recorded: DRB1*01:02, DRB1*13:01,; also recorded: DRB1*14:01, DRB1*15:01,; also recorded: DRB1*16:01”; the Dominant entry is given as “Yes (more dominant epitopes are defined by being recognized by 3 or more donors/different studies)”; the Restriction entry is “CD4”.

On to 30 (GAVILRGHLRIAGHHLGR) [compound 30], for which, in assay [1], the Dominant result is reported as “Yes (more dominant epitopes are defined by being recognized by 3 or more donors/different studies)” and the Restriction entry is “CD4”.

Take 31 (GAVILRGHLRIAGHH) [compound 31]: in assay [1], the “Allele(s)” value was “DRB1*13:01, DRB1*15:01” and the Restriction result is reported as “CD4”.

Turning to 32 (LRGHLRIAGHHLGRC) [compound 32], in assay [1], the “Allele(s)” value was “DRB1*11:01, DRB1*11:04”; the Dominant entry was “Yes (more dominant epitopes are defined by being recognized by 3 or more donors/different studies)”; the Restriction result is “CD4”.

With 33 (RGHLRIAGHHLGRCD) [compound 33], in assay [1], the “Allele(s)” value is reported as “DRB1*07:01, DRB1*13:01,; also recorded: DRB1*14:01, DRB1*15:01”; the Dominant result was “Yes (more dominant epitopes are defined by being recognized by 3 or more donors/different studies)”; the Restriction result is “CD4”.

34 (LRIAGHHLGRCDIKD) [compound 34]: in assay [1], the Restriction entry was “CD4”.

For 35 (IAGHHLGRCDIKDLP) [compound 35], in assay [1], the Dominant result is given as “Yes (more dominant epitopes are defined by being recognized by 3 or more donors/different studies)” and the Restriction result is recorded as “CD4”.

Regarding 37 (IKDLPKEITVATSRT) [compound 37], in assay [1], the Dominant entry is “Yes (more dominant epitopes are defined by being recognized by 3 or more donors/different studies)” and the Restriction result is “CD4”.

As to 1431 (VVFLHVTYV) [compound 1431], in assay [2], the Restriction entry is on record as “CD8”. Also, the Dominant entry in assay [3] is “Yes (more dominant epitopes are defined by being recognized by 3 or more donors/different studies)”.

Take 1442 (GTHWFVTQR) [compound 1442]: the Restriction result in assay [2] is “CD8”. In assay [3], the Dominant result is given as “Yes (more dominant epitopes are defined by being recognized by 3 or more donors/different studies)”.

1452 (RLNEVAKNL) [compound 1452]: the Restriction result in assay [2] was “CD8”. Moreover, the Dominant entry in assay [3] was “Yes (more dominant epitopes are defined by being recognized by 3 or more donors/different studies)”.

For the substance 1453 (NLNESLIDL) [compound 1453], the Restriction entry in assay [2] was “CD8”. Moreover, the Dominant result in assay [3] was “Yes (more dominant epitopes are defined by being recognized by 3 or more donors/different studies)”.

In the case of 1458 (YEQYIKWPWYI) [compound 1458], the Restriction result in assay [2] is “CD8”. For the same substance, the Dominant entry in assay [3] is “Yes (more dominant epitopes are defined by being recognized by 3 or more donors/different studies)”.

1461 (QYIKWPWYI) [compound 1461]: the Restriction result in assay [2] was “CD8”. In addition, the Dominant entry in assay [3] was “Yes (more dominant epitopes are defined by being recognized by 3 or more donors/different studies)”.

For the substance 1462 (KWPWYIWLGF) [compound 1462], in assay [2], the Restriction entry is on record as “CD8”. In addition, the Dominant result in assay [3] is reported as “Yes (more dominant epitopes are defined by being recognized by 3 or more donors/different studies)”.

Turning to 1466 (SEPVLKGVKL) [compound 1466], the Restriction result in assay [2] is “CD8”. In addition, the Dominant entry in assay [3] is “Yes (more dominant epitopes are defined by being recognized by 3 or more donors/different studies)”.

Take YLQPRTFLL [SEQ ID NO: 1481]: the recognized in subjects in assay [2] (Ferretti et al., 67% of the subjects tested) is listed as ≥ 3 subjects. In addition, in assay [2] (Habel et al., 14 peptides screened, HLA-A*02:01), the IFN-f response result was “strongest”. The “detected in HLA-A2+ individuals” value in assay [2] (Nielsen study, HLA-A*02:01) is on record as 81%. Also, the “responses detected in patients” value in assay [2] (Rha et al., 37 of 112 and 2 of 40 patients) was 33%. Also, in assay [2] (Rha et al.), the “MHC class I multimer+ cells in unexposed subjects” value is listed as “not detected”. Further, in assay [2] (Sahin et al.), the dominance as reported result is reported as “most dominant epitope”. Besides, the “found to be positive in independent studies” value in assay [3] (overall, all curated studies) was 11 independent studies.
